Measured values published in US20260365670A1, “EGFR INHIBITORS AND USES THEREOF” (DIZAL (JIANGSU) PHARMACEUTICAL CO., LTD., priority 2022, published 2026).
pIC50: −log10 of the molar value. Read-outs that look alike come from different tables or passages of the source.

What was measured:
EGFR L858R = target: T1, EGFR L858R (Homo sapiens, UniProt P00533, L858R); assay: Inhibition of EGFR L858R biochemical enzymatic activity (HTRF); settings: 1 mM ATP; for IC50: 1 h, room temperature, read-out: IC50 (nM) @L858R; for pIC50: 1 h at room temperature, read-out: IC50 @L858R
T1 construct: purchased Carna Bio
T1 sequence (P00533 25-1210 L858R): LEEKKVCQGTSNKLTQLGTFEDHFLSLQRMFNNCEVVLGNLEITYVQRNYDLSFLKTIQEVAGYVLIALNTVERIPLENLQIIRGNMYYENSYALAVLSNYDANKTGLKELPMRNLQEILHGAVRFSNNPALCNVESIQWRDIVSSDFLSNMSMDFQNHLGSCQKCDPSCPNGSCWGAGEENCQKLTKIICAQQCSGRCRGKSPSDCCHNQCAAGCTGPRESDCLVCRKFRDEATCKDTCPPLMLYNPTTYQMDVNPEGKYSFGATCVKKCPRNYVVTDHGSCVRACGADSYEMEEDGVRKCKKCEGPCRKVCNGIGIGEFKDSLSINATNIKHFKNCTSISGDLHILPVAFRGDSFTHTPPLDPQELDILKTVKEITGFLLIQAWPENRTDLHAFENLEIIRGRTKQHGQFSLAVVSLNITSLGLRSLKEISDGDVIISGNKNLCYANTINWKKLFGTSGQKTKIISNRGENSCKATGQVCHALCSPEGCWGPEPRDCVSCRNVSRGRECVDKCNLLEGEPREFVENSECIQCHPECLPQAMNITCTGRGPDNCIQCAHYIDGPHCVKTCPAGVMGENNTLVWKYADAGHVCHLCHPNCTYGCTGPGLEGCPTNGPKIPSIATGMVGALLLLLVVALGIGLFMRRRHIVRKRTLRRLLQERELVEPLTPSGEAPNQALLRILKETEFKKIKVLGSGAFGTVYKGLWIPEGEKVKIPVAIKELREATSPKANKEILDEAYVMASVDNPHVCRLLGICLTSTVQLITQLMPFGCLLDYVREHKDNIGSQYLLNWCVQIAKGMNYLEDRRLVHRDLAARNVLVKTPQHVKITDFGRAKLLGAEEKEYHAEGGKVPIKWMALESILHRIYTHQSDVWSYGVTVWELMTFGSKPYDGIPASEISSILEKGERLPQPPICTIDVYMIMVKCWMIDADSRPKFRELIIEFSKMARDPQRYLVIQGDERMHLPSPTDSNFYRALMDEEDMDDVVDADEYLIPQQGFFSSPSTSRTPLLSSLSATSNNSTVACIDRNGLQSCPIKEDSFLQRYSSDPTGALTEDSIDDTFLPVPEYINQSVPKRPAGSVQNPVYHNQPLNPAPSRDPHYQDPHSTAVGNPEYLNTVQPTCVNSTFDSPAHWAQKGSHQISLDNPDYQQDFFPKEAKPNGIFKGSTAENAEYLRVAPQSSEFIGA
How it was run: (§1)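 1 mM ATP, 1 μM biotin-TK peptide, 5 mM MgCl2, 1 mM MnCl2, 0.01% CHAPS, 1 mM DTT, 0.5% DMSO; 1 h RT; EDTA stop; HTRF 665/615 nm; IC50 via 4PL.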

[1] = test system: Ba/F3 cells expressing EGFR mutations; assay: Cell proliferation assay, Ba/F3 cells expressing EGFR mutations (CellTiter-Glo, 72 hours); format: cell-based
How it was run: (§2)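 Ba/F3 cells (5000/well) and PC-9 cells (500/well, RPMI1640 with 10% FBS) were plated overnight and then dosed with a compound concentration series. Viable cells were read at day 0 (G0) and after treatment (G3). GI50 came from curve fits of G0-corrected proliferation relative to DMSO.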

EGFR wild type = target: T2, EGFR wild type (Homo sapiens, UniProt P00533); assay: Inhibition of EGFR wild type biochemical enzymatic activity (HTRF); settings: 1 mM ATP; for IC50: EGFR WT, 1 h, room temperature, read-out: IC50 (nM) @WT; for pIC50: EGFR wild type, 1 h at room temperature, read-out: IC50 @WT
T2 construct: purchased Carna Bio
How it was run: as §1

EGFR Exon19Del/T790M = target: T3, EGFR Exon19Del/T790M (Homo sapiens, UniProt P00533, DEL746-750/T790M); assay: Inhibition of EGFR Exon19Del/T790M biochemical enzymatic activity (HTRF); settings: 1 mM ATP; for IC50: EGFR Del19-T790M, 1 h, room temperature, read-out: IC50 (nM) @Del19-T790M; for pIC50: EGFR Exon19Del/T790M, 1 h at room temperature, read-out: IC50 @Del19-T790M
T3 construct: purchased Carna Bio
T3 sequence (P00533 with tags, fused parts or gaps DEL746-750/T790M limits assumed): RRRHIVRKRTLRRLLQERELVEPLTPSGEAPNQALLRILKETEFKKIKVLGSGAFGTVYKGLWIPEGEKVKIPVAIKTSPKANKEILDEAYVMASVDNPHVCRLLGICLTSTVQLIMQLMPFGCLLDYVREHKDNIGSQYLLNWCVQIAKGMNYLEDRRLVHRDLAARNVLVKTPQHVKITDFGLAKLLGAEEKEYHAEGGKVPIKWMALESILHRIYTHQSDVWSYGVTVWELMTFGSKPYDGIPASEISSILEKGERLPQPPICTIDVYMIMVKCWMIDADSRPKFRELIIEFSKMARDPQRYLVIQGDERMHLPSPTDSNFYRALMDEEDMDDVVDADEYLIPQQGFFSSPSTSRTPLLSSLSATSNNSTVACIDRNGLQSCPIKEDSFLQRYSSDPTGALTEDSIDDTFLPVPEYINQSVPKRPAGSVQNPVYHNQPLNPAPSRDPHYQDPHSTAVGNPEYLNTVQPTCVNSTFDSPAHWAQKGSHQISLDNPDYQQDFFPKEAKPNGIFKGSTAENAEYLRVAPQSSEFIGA
How it was run: as §1

EGFR[T790M/C797S/L858R] = target: T4, EGFR[T790M/C797S/L858R] (Homo sapiens, UniProt P00533, C797S/L858R/T790M); assay: Inhibition of EGFR[T790M/C797S/L858R] biochemical enzymatic activity (HTRF); settings: 1 mM ATP; for IC50: EGFR T790M-C797S-L858R, 1 h, room temperature, read-out: IC50 (nM) @T790M- C797S - L858R; for pIC50: EGFR[T790M/C797S/L858R], 1 h at room temperature, read-out: IC50 @T790M- C797S - L858R
T4 construct: purchased Carna Bio
T4 sequence (P00533 25-1210 T790M/C797S/L858R): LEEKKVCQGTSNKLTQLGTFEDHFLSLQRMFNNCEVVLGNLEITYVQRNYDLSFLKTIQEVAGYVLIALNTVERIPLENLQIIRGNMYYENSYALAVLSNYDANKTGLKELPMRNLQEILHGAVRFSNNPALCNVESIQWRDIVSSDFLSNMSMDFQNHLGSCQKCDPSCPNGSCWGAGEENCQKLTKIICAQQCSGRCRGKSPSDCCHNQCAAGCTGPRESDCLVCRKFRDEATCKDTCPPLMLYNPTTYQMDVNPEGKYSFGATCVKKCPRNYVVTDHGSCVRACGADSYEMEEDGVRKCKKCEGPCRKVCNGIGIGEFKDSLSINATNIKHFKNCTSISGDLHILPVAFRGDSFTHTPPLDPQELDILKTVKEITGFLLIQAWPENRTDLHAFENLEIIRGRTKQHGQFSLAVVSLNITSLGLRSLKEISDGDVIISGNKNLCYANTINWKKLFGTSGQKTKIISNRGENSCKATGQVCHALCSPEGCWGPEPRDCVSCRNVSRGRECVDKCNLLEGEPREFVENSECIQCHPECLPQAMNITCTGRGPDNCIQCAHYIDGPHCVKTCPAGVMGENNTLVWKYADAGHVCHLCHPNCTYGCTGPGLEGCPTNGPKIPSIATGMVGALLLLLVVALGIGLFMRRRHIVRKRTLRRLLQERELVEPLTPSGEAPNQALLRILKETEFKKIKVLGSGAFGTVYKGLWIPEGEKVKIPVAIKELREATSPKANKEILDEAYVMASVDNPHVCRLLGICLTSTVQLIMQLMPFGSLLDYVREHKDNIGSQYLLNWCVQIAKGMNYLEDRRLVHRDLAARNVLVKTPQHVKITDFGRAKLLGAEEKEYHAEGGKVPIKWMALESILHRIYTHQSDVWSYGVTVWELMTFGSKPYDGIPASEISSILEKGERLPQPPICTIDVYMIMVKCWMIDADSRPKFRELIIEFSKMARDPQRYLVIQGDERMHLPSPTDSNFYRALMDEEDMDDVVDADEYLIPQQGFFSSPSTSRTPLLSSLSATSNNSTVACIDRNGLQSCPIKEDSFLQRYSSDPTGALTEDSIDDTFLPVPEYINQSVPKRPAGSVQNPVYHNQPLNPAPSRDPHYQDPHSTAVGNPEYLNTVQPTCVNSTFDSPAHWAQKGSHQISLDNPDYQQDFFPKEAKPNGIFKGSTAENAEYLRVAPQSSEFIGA
How it was run: as §1

EGFR (d746-750 C797S) = target: T5, EGFR (d746-750 C797S) (Homo sapiens, UniProt P00533, C797S/DEL746-750); assay: Inhibition of EGFR (d746-750 C797S) biochemical enzymatic activity (HTRF); settings: 1 mM ATP; for IC50: EGFR Del19-C797S, 1 h, room temperature, read-out: IC50 (nM) @Del19-C797S; for pIC50: EGFR (d746-750 C797S), 1 h at room temperature, read-out: IC50 @Del19-C797S
T5 construct: purchased signalchem
How it was run: as §1

EGFR (C797S L858R) = target: T6, EGFR (C797S L858R) (Homo sapiens, UniProt P00533, C797S/L858R); assay: Inhibition of EGFR (C797S L858R) biochemical enzymatic activity (HTRF); settings: 1 mM ATP; for IC50: EGFR L858-C797S, 1 h, room temperature, read-out: IC50 (nM) @L858-C797S; for pIC50: EGFR (C797S L858R), 1 h at room temperature, read-out: IC50 @L858-C797S
T6 construct: purchased signalchem
How it was run: as §1

EGFR Exon19Del = target: T7, EGFR Exon19Del (Homo sapiens, UniProt P00533, DEL746-750); assay: Inhibition of EGFR Exon19Del biochemical enzymatic activity (HTRF); settings: read-out: IC50 @Del19
T7 construct: purchased Carna Bio
T7 sequence (P00533 with tags, fused parts or gaps DEL746-750 limits assumed): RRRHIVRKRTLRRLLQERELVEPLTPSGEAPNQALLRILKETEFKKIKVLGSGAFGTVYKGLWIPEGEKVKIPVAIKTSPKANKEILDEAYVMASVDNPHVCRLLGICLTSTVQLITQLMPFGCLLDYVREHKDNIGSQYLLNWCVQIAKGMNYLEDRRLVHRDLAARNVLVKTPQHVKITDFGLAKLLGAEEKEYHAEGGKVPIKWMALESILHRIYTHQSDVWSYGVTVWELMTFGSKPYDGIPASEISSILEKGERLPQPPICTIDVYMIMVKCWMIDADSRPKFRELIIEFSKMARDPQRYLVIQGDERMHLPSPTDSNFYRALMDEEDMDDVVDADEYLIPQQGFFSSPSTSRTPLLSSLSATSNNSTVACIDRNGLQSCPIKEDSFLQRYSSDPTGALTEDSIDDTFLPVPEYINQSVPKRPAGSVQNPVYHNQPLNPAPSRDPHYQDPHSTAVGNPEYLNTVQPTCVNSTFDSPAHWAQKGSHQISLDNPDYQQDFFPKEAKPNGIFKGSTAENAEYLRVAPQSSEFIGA
How it was run: as §1

PC-9 = assay: Cell proliferation assay, PC-9 cells (CellTiter-Glo, 72 hours); format: cell-based; settings: PC9 cells, read-out: GI50 PC9
How it was run: as §2

A-431 = assay: Cell proliferation assay, A-431 cells (GI50, Table 6); format: cell-based
EGFR L858R/T790M = target: T8, EGFR L858R/T790M (Homo sapiens, UniProt P00533, L858R/T790M); assay: Inhibition of EGFR L858R/T790M biochemical enzymatic activity (HTRF); settings: 1 mM ATP; for IC50: EGFR L858R-T790M, 1 h, room temperature, read-out: IC50 (nM) @L858R-T790M; for pIC50: EGFR L858R/T790M, 1 h at room temperature, read-out: IC50 @L858R-T790M
T8 construct: purchased Carna Bio
T8 sequence (P00533 25-1210 T790M/L858R): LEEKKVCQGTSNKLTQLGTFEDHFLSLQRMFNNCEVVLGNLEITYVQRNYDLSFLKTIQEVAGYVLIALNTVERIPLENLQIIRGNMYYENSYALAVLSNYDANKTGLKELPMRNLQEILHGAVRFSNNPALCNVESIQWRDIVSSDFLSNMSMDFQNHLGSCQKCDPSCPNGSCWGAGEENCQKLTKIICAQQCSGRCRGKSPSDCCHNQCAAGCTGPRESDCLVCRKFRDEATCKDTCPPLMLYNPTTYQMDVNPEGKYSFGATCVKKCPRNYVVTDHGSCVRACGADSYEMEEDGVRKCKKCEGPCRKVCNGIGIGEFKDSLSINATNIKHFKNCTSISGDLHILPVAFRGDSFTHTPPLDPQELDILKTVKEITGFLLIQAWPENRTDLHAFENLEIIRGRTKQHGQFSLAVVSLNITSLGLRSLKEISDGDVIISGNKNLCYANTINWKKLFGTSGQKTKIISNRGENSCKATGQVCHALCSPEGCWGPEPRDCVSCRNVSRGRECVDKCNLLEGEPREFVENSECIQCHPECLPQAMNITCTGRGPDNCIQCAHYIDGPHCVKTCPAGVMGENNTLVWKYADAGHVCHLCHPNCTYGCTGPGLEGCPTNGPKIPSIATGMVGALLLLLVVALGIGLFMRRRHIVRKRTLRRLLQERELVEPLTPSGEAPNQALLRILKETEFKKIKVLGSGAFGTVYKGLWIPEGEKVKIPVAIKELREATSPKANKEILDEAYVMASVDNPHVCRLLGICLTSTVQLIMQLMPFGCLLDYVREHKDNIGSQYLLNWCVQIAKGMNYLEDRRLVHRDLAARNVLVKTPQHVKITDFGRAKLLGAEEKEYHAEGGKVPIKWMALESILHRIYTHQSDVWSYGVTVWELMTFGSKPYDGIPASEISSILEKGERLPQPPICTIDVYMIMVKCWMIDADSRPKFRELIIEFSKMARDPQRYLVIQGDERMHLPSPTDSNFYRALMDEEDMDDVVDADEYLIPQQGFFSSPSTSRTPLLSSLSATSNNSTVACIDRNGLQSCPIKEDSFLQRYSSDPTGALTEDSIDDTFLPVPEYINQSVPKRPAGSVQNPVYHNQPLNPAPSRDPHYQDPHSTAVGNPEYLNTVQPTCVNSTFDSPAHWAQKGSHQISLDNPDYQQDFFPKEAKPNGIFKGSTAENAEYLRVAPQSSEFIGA
How it was run: as §1

[2] = target: T9, EGFR[T790M/C797S/d746-750] (Homo sapiens, UniProt P00533, C797S/DEL746-750/T790M); assay: Inhibition of EGFR[T790M/C797S/d746-750] biochemical enzymatic activity (HTRF); settings: for IC50: EGFR T790M-C797S-Del19, 1 mM ATP, 1 h, room temperature, read-out: IC50 (nM) @T790M - C797S - Del19; for pIC50: EGFR[T790M/C797S/d746-750], 1 mM ATP, 1 h at room temperature, read-out: IC50 @T790M - C797S - Del19
T9 construct: purchased Carna Bio
How it was run: as §1

[3] = Mus musculus, BaF3, 72 h, BaF3 cells, EGFR DEL19 - C797S, read-out: GI50 DEL19 - C797S/BaF3
[4] = Mus musculus, BaF3, 72 h, BaF3 cells, EGFR DEL19 - T790-C797S, read-out: GI50 DEL19 - T790-C797S/BaF3
[5] = Mus musculus, BaF3, 72 h, BaF3 cells, EGFR L858R - C797S, read-out: GI50 L858R - C797S/BaF3
[6] = Mus musculus, BaF3, 72 h, BaF3 cells, EGFR L858R - T790-C797S, read-out: GI50 L858R - T790-C797S/BaF3
[7] = Mus musculus, BaF3, 72 h, BaF3 cells, EGFR L858R, read-out: GI50 L858R/BaF3
[8] = Mus musculus, BaF3, 72 h, EGFR DEL19 - T790M, read-out: GI50 DEL19 - T790M
[9] = EGFR Del19, 1 mM ATP, 1 h, room temperature
[10] = Homo sapiens, A-431, A-431 cells
[11] = BaF3 cells, EGFR DEL19 - C797S, read-out: GI50 DEL19 - C797S/BaF3
[12] = BaF3 cells, EGFR DEL19 - T790-C797S, read-out: GI50 DEL19 - T790-C797S/BaF3
[13] = BaF3 cells, EGFR L858R - C797S, read-out: GI50 L858R - C797S/BaF3
[14] = BaF3 cells, EGFR L858R - T790-C797S, read-out: GI50 L858R - T790-C797S/BaF3
[15] = BaF3 cells, EGFR L858R - T790M, read-out: GI50 L858R - T790M/BaF3
[16] = BaF3 cells, EGFR L858R, read-out: GI50 L858R/BaF3
[17] = EGFR DEL19 - T790M, read-out: GI50 DEL19 - T790M
[18] = EGFR Exon19Del, 1 mM ATP, 1 h at room temperature
[19] = Mus musculus, BaF3, 72 h, BaF3 cells, EGFR L858R - T790M, read-out: GI50 L858R - T790M/BaF3

Row | IC50 (EGFR L858R) [nM] | GI50 [1, 3] [µM] | GI50 [1, 4] [µM] | GI50 [1, 5] [µM] | GI50 [1, 6] [µM] | GI50 [1, 7] [µM] | GI50 [1, 8] [µM] | IC50 (EGFR wild type) [nM] | IC50 (EGFR Exon19Del/T790M) [nM] | GI50 (PC-9; Homo sapiens, PC-9, 72 h) [µM] | GI50 (A-431; [10]) [µM] | pIC50 (EGFR L858R) | pIC50 (EGFR wild type) | pIC50 (EGFR Exon19Del/T790M) | pIC50 (EGFR[T790M/C797S/L858R]) | pIC50 (EGFR (d746-750 C797S)) | pIC50 (EGFR (C797S L858R)) | pIC50 (EGFR Exon19Del; [18]) | pIC50 (EGFR L858R/T790M) | pIC50 [2] | also measured | SMILES
1 | > 5000 | 0.125 | 0.061 | 0.342 | 0.042 | 0.612 | 0.057 | > 5000 | 33 | 0.292 | 3.53 | – | – | – | – | – | – | – | – | – | IC50 (EGFR[T790M/C797S/L858R]): 532 nM; IC50 (EGFR (d746-750 C797S)): 243 nM; IC50 (EGFR (C797S L858R)): 3630 nM; pIC50 (EGFR Exon19Del; [9]): 6.23; IC50 (EGFR L858R/T790M): 847 nM; IC50 [2]: 16 nM | Cc1cc2cc(n1)-c1cnn(C)c1OCCN1CCCCC(C1)n1c(nc3ccccc31)NC2=O (centres unmarked) [Example B4, 15,21-Dimethyl-23-oxa-2,9,11,16,20,21,26-heptaazahexacyclo[24.4.1.1^{13,17}.0^{2,10}.0^{3,8}.0^{18,22}]dotriaconta-3,5,7,9,13(32),14,16,18(22),19-nonaen-12-one]
2 | – | – | – | – | – | – | – | – | – | – | 2.57 | 7.28 | 6.01 | 8.41 | 8.77 | 8.72 | 8.02 | 8.28 | 8.59 | 8.72 | GI50 [1, 11]: 0.002 µM; GI50 [1, 12]: 0.002 µM; GI50 [1, 13]: 0.004 µM; GI50 [1, 14]: 0.002 µM; GI50 [1, 15]: 0.002 µM; GI50 [1, 16]: 0.013 µM; GI50 [1, 17]: 0.006 µM; GI50 (PC-9): 0.01 µM | Cc1cc2cc(n1)-c1cnn(C)c1OCCN1CC3CCC(C3)(C1)n1c(nc3ccc(N4CC5CC4CN5C)cc31)NC2=O (single isomer, unassigned) [Example B53B]
3 | 38 | 0.0015 | 0.011 | 0.011 | 0.0066 | 0.0021 | 0.0073 | 1060 | 6.6 | 0.011 | 1.07 | – | – | – | – | – | – | – | – | – | GI50 [1, 19]: 0.015 µM; IC50 (EGFR[T790M/C797S/L858R]): 9 nM; IC50 (EGFR (d746-750 C797S)): 4.7 nM; IC50 (EGFR (C797S L858R)): 19 nM; pIC50 (EGFR Exon19Del; [9]): 8.12; IC50 (EGFR L858R/T790M): 32 nM; IC50 [2]: 3 nM | CN(C)C1CCN(c2ccc3nc4n(c3c2)C23CCC(CC2)CN(CCOc2c(cnn2C)-c2cc(cn(C)c2=O)C(=O)N4)C3)CC1 [Example A119, 5-[4-(dimethylamino)piperidin-1-yl]-15,21-dimethyl-23-oxa-2,9,11,15,20,21,26-heptaazaheptacyclo[26.2.2.1^{1,26}.1^{13,17}.0^{2,10}.0^{3,8}.0^{18,22}]tetratriaconta-3,5,7,9,13,17(34),18(22),19-octaene-12,16-dione]
4 | – | – | – | – | – | – | – | – | – | – | – | < 5.30 | < 5.30 | < 5.30 | < 5.30 | < 5.30 | < 5.30 | < 5.30 | < 5.30 | < 5.30 | GI50 [1, 11]: 0.977 µM; GI50 [1, 12]: 0.492 µM; GI50 [1, 13]: 2.5 µM; GI50 [1, 14]: 0.198 µM; GI50 [1, 15]: 0.919 µM; GI50 [1, 16]: 7.61 µM; GI50 [1, 17]: 0.497 µM; GI50 (PC-9): 3.05 µM; GI50 (A-431; A-431 cells): 7.83 µM | COCCN(C)c1ccc2nc3n(c2c1)C12CCC(CN(CCOc4c(cnn4C)-c4cc(cc(C)n4)C(=O)N3)C1)C2 (single isomer, unassigned) [Example B46A]
5 | – | 0.024 | 0.008 | 0.101 | 0.004 | 0.167 | 0.007 | – | – | 0.178 | 7.73 | 6.55 | < 5.30 | 8.18 | 8.38 | 8.03 | 6.90 | 7.70 | 8.11 | 8.48 | GI50 [1, 19]: 0.018 µM | Cc1cc2cc(n1)-c1cnn(C)c1OCCN1CC3CCC(CC3)(C1)n1c(nc3ccc(N4CCN(C(C)C)CC4)cc31)NC2=O [Example B39]
